In patent US20140056866A1, “USE OF BIOLOGICAL OR CHEMICAL CONTROL AGENTS FOR CONTROLLING INSECTS AND NEMATODES IN RESISTANT CROPS” (priority 2010, published 2014):

Legend:
S. frugiperda = test: Leaf sample bioassay with fall armyworm larvae (Example 3); format: in vivo; conditions: for Insect Mortality / Leaf Feeding Rating: 48 hours; for Insect Mortality: Jul. 14, 2011; for Leaf Feeding Rating: scale 0 = undamaged to 3 = severe feeding; for additional increase in mortality in the presence of Axmi205: versus clothianidin alone; for increase in mortality above the negative control: Axmi205-negative plants
Method: (§1) Zea Mays (Corn) seed from events traited with Axmi205 were selected. […] The population of the seed used is not entirely transgenic; plants without the trait in their DNA were used for control comparisons.
(§2) Seed was treated with seed applied pesticides using a hege bowl treater. Applications were made of: Clothianidin; available as Poncho though through Bayer CropScience. Rates were applied as mg ai/seed. The evaluation had non-target variables controlled.
(§3) During testing, samples of each plant were submitted for PCR to determine if an individual plant carried the Axmi205 gene (positive or negative). Plants for which no PCR results could be obtained were not included in the results.
(§4) Seed were planted into germination mix at a rate of one seed per root-trainer. Testing was conducted as a randomized complete block with 30 replications. Plants were maintained in a greenhouse and periodically assessed for emergence. After several weeks of growth, leaf samples were taken from plants and used to conduct insect bioassays on species of Lepidoptera. A leaf sample was placed into a Petri-dish and infested with 10 larvae of fall armyworm; Spodoptera frugiperda. After 48 hours dishes were evaluated for insect mortality and leaf feeding damage. When assessing leaf feeding, damage was recorded as a rating between 0-3, where zero was undamaged and three was severely damaged. After approximately three weeks from planting, plants were infested with Diabrotica virgifera (western corn rootworm). Western corn rootworm eggs were infested into the root system of plants. At approximately 15 days post infestation plants were extracted and insect feeding damage was evaluated following Iowa State University's Node-Injury Scale at www.ent.iastate.edu/pest/rootworm/nodeinjury/nodeinjury.html.

D. virgifera = test: Western corn rootworm root feeding damage, Node-Injury Scale (Example 3); format: in vivo, Diabrotica virgifera; conditions: for Root Damage Rating: 0 = undamaged, 3 = severely damaged
Method: as §1, §2, §3, §4

[1] = tested on: Glycine max (soybean) roots; test: WinRHIZO root image analysis of soybean (Example 2); format: in vivo
Method: (§5) Glycine max (soybean) seed from an event traited with Axmi031 was selected. […] Plants that screened negative for the presence of the transgene were used for control comparisons.
(§6) Seed was treated with seed applied pesticides using a hege bowl treater. Metalaxyl (MTL), available as Allegiance through Bayer CropScience, was applied at rates of 2 and 4 g ai/100 kg seed. Trilex 2000 was also included as a commercial standard package.
(§7) During testing, samples of each plant were submitted for PCR to determine if an individual plant carried the Axmi031 gene (Positive or Negative). Plants for which no PCR results could be obtained were not included in results. There were a disproportionate number of positive plants. As a result, the number of negative plants available in some comparisons was very small.
(§8) Testing was conducted as a randomized complete block with 30 replications. Seed were planted into sand at a rate of one seed per pot. Plants were stored at 10° C. for eight days and then moved to 25° C. for the remainder of the test. Plants were periodically assessed for emergence. After several weeks of growth plants were evaluated for height. At approximately 40 days after planting, 5 random plants for each treatment comparison were selected for extraction. If fewer than 5 plants were available, evaluations were still conducted as long as a minimum of 3 plants could be assessed. Exacted plants were measured by hand to determine root length and mass and evaluated using WinRHIZO image analysis system (available through Regent instruments at www.regent.qc.ca/products/rhizo/WinRHIZO.html.

Glycine max (soybean) = test: Soybean shoot height and plant mass after metalaxyl seed treatment (Example 2); format: in vivo
Method: as §5, §6, §7, §8

SCN (HG2.5.7) = test: SCN cyst counts on Axmi031 soybean treated with Bacillus firmus (Example 4, FIG. 2); format: in vivo, soybean cyst nematodes; conditions: Axmi031 expression
Source text: Soybeans (6-10 seeds each) in this study included: Control SB171 (transfected control with non gene of interest); SB 171 treated with Bacillus firmus CNCM I-1582 spore control plant; Axmi031 transgenic plant (which also contains non gene of interest); Axmi031 transgenic plant (which also contains non gene of interest) treated with Bacillus firmus CNCM I-1582 spore.
Soybeans (6-10 seeds/plant and treatment) were planted into 4″ clay pots in sand infested with approximately 37,000 SCN eggs (HG2.5.7) at time of planting. Soybean plants were reinfested with 20,000 SCN eggs (HG2.5.7) at approximately 4 weeks post planting. Plants were grown 57 days post reinfestation date. Cysts were harvested from each pot and counted. PCR and Western analysis were done on each AXMI031 plant. Negative segregants were removed from analysis. Data shown in FIG. 2 represents six plants for SB171 each treatment and all PCR/Western positive Axmi031 plants.

SCN (inbred colony OP50) = test: SCN cyst counts on soybean pot plants, seed treated with fluopyram (Example 1); format: in vivo, soybean cyst nematodes; conditions: base (color/coating) treatment only, two months after planting
Method: Two tests were planted with Jack (an SCN resistant soybean variety with PI 88788 resistance) and two genetically modified Jack varieties (AXN2 and AXMI031) known to produce a nematicidal protein. The seed were treated with a color/coating base or the same base plus one of two different rates of fluopyram (experiment 1 used 0.075 mg fluopyram/seed and experiment 2 used 0.15 mg fluopyram/seed). The SCN used to inoculate both tests were collected from an inbred colony (OP50) with the ability to overcome PI 88788 resistance.
Tests were conducted as non-randomized blocks with a minimum of 10 replicates. Seed were planted in individual 4″ clay pots with coarse sand and inoculated with approximately 20,000 OP50 juveniles in ten equal inoculations beginning at planting and again approximately every third day. Plants were maintained in a germination chamber. Blocks were rotated approximately every third day to minimize potential influence of environmental variance. Two months after planting, plants were harvested and cysts were collected and counted to evaluate the efficacy of the nematicide and traits, both individually and in combination with each other.

[2] = metalaxyl 2 g ai added to Axmi031
[3] = metalaxyl 4 g ai added to Axmi031

Molecule: CN/C(=N\[N+](=O)[O-])NCc1cnc(Cl)s1 [clothianidin]
- Insect Mortality (S. frugiperda; CTD 0.125 mg ai/seed): 8%
- Leaf Feeding Rating (S. frugiperda; CTD 0.125 mg ai/seed): 3.00
- Insect Mortality (S. frugiperda; CTD 0.25 mg ai/seed): 12%
- Leaf Feeding Rating (S. frugiperda; CTD 0.25 mg ai/seed): 2.77
- Insect Mortality (S. frugiperda; CTD 0.5 mg ai/seed): 11%
- Leaf Feeding Rating (S. frugiperda; CTD 0.5 mg ai/seed): 3.00
- additional increase in mortality in the presence of Axmi205 (S. frugiperda; clothianidin 0.125 mg ai/seed): 88%
- additional increase in mortality in the presence of Axmi205 (S. frugiperda; clothianidin 0.5 mg ai/seed): 54%
- increase in mortality above the negative control (S. frugiperda; highest rate of clothianidin (0.5 mg ai/seed)): 57%
- increase in mortality above the negative control (S. frugiperda; lowest rate of clothianidin (0.125 mg ai/seed)): 14%
- increase in mortality above the negative control (S. frugiperda; middle rate of clothianidin (0.25 mg ai/seed)): 71%
- Root Damage Rating (D. virgifera; CTD 0.125 mg ai/seed): 0.56
- Root Damage Rating (D. virgifera; CTD 0.25 mg ai/seed): 0.32
- Root Damage Rating (D. virgifera; CTD 0.5 mg ai/seed): 0.04
- reduction of root damage over the negative control (D. virgifera; highest rate of clothianidin tested (0.5 mg ai/seed)): 96%
- reduction of root damage over the negative control (D. virgifera; lowest rate of clothianidin tested (0.125 mg ai/seed)): 67%

Molecule: COCC(=O)N(c1c(C)cccc1C)C(C)C(=O)OC (stereo not drawn) [metalaxyl]
- increase in root lengths [1, 2]: 60%
- increase in root surface area [1, 2]: 42%
- increase in root volume [1, 2]: 27%
- increase in root lengths [1, 3]: 68%
- increase in root surface area [1, 3]: 37%
- increase in root volume [1, 3]: 11%
- root tips, forks, and crossings ([1]; metalaxyl added to Axmi031, trend with rate): increased as metalaxyl rate increased
- plant shoot height, trend with rate (Glycine max (soybean); metalaxyl 2 and 4 g ai/100 kg seed): increased with increasing rates
- additional increase in plant total mass (Glycine max (soybean); metalaxyl 2 g ai on Axmi031 plants): 5%
- additional shoot height (Glycine max (soybean); metalaxyl 2 g ai/100 kg seed on Axmi031 plants): 5%
- increase in above ground plant mass compared to Axmi031 alone (Glycine max (soybean); metalaxyl 4 g ai on Axmi031 plants): 11%
- additional shoot height (Glycine max (soybean); metalaxyl 4 g ai/100 kg seed on Axmi031 plants): 8%

B1: Axmi031: nematicidal protein trait expressed in genetically modified soybean (gene axmi031, Table 1) (protein)
chain: MDCNLQSQQNIPYNVLAIPVSNVNSLTDTVGDLKKAWEEFQKTGSFSLTALQQGFSASQGGTFNYLTLLQSGISLAGSFVPGGTFVAPIINMVIGWLWPHKNKNADTENLINLIDSEIQKQLNKALLDADRNEWSSYLESIFDSSNNLNGAIVDAQWSGTVNTTNRTLRNPTESDYTNVVTNFIAADGDIANNENHIMNGNFDVAAAPYFVIGATARFAAMQSYIKFCNAWIDKVGLSDAQLTTQKANLDRTKQNMRNAILNYTQQVMKVFKDSKNMPTIGTNKFSVDTYNVYIKGMTLNVLDIVAIWPSLYPDDYTSQTALEQTRVTFSNMVGQEEGTDGSLRIYNTFDSFSYQHSPIPNNNVNLISYYNDELQNLELGVYTPPKKGSGYSYPYGFVLNYANSKYKYGDSNDPESLGGLSTLSAPIQQVNAATQNSKYLDGEILNGIGASLPGYCTTGCSPTEPPFSCTSTANGYKASCNPSDTNQKINALYPFTQANVKGNTGKLGVLASLVSYDLNPKNVFGELDSDTNNVILKGIPAEKGYFPNNARPTVVKEWINGASAVPLDSGNTLFMTATNLTATQYRIRIRYANPNSNTQIGVRITQNGSLISSSNLTLYSTTDMNNTLPLNVYVIGENGNYTLQDLYNTTNVLSTGDITLQITGGDQKIFIDRIEFVPTMPVPGNTNNNNGNNNGNNNPPHHVCAIAGTQQSCSGPPKFEQVSDLEKITTQVYMLFKS
modifications: AXMI-031(A-D)
- WinRHIZO root values versus negative control ([1]; Axmi031 as an individual component): comparable to, or slightly below, the negative control
- shoot length versus untreated negative control (UTC) (Glycine max (soybean); 28 days after planting (DAP), Axmi031 without metalaxyl): 14%
- increase in plant total mass (Glycine max (soybean); presence of Axmi031, no metalaxyl): 13%
- SCN cyst counts in transgenic soybean plants (SCN (HG2.5.7)): correlates with reduction in SCN cysts counts
- percent reduction in average number of cysts compared to Jack (SCN (inbred colony OP50); first experiment): 92%
- percent reduction in average number of cysts compared to Jack (SCN (inbred colony OP50); second experiment): 88%

B2: Axn2: nematicidal protein trait expressed in genetically modified Jack soybean (gene axn2, Table 1) (protein, listed as Bacillus thuringiensis)
chain: MRIRRNQSTLSHNERLAFTNAVLELKRRPSRLPMSLGSTSRYDDYVYWHLQSMENQTSTTPGWAHRGPAFLPWHRYYLNQFEEDLQRIDHTVTLPYWDWTVDNSTDSSVPGSPWTDDFMGGDGDPTQEYTVTTGPFTGDNWKLTLFDHHENEPHNARLRRQLGTTLNASGNTISINLPTDSEVQNCLLETPYYVSPWRAGQDVNQPALNPTKPSFCNRLEGWYGAGSIHNKVHVWVAGATEGSMIWMSSPNDPVFFLHHANIDRLWVQWQANNPNEGYHPTGNGNEVGPTGHNLNDSMNPWGRKVTPNNVLNHYSLGYTYDTDSTPLSEIFMHTFNLKIRKEKQIKDGHFGLSQEDLDKL
- percent reduction in average number of cysts compared to Jack (SCN (inbred colony OP50); first experiment): 20%
- percent reduction in average number of cysts compared to Jack (SCN (inbred colony OP50); second experiment): 43%
